Measured values: ChEMBL document CHEMBL3885881, “DrugMatrix”
“And” between values parts separate entries of the source, which are not always exact repeats. Equal entries are not always repeated.

Organism: Rattus norvegicus
Experiment: DrugMatrix - Regimen: Daily Repeat
Type: toxicity, organism-based, Sprague-Dawley
Set-up: regimen Daily Repeat, gender Male, age 6-8 weeks
Details: in vivo, po, route oral GAVAGE, vehicle .5 % CMC; for ABSOLUTE BASOPHIL / ABSOLUTE EOSINOPHIL / ABSOLUTE LYMPHOCYTE / ABSOLUTE MONOCYTE / BASOPHIL / EOSINOPHIL / ERYTHROCYTE COUNT / HEMATOCRIT / HEMOGLOBIN / LEUKOCYTE COUNT / LYMPHOCYTE / MEAN CORPUSCULAR HEMOGLOBIN / MEAN CORPUSCULAR HEMOGLOBIN CONCENTRATION / MEAN CORPUSCULAR VOLUME / MONOCYTE / NEUTROPHIL / PLATELET COUNT / ABSOLUTE SEGMENTED NEUTROPHIL / NUCLEATED RED BLOOD CELLS: tissue Blood; for ALANINE AMINOTRANSFERASE / ALBUMIN / ALKALINE PHOSPHATASE / ASPARTATE AMINOTRANSFERASE / BLOOD UREA NITROGEN / CARBON DIOXIDE / CHLORIDE / CHOLESTEROL / CREATINE PHOSPHOKINASE / CREATININE / GLUCOSE / LACTATE DEHYDROGENASE / LIPASE / PHOSPHORUS / POTASSIUM / SODIUM / TOTAL BILIRUBIN / TOTAL PROTEIN / URIC ACID: tissue Plasma
[1] = 0 mg/kg, 120 h, dose level Control, time 5 day
[2] = 0 mg/kg, […], dose level Control, time 14 day
[3] = 10 mg/kg, 72 h, dose level Low, time 3 day
[4] = 10 mg/kg, 120 h, dose level Low, time 5 day

Compound: CN(C)CCN(Cc1cccs1)c1ccccn1
- ABSOLUTE BASOPHIL [1]: 150 cells/µL
- ABSOLUTE EOSINOPHIL [1]: 110 cells/µL
- ABSOLUTE LYMPHOCYTE [1]: 13400 cells/µL
- ABSOLUTE MONOCYTE [1]: 330 cells/µL
- BASOPHIL [1]: 0.78%
- EOSINOPHIL [1]: 0.62%
- ERYTHROCYTE COUNT [1]: 7.12 x10E6/uL
- HEMATOCRIT [1]: 46.95%
- HEMOGLOBIN [1]: 14.55 G/DL
- LEUKOCYTE COUNT [1]: 16.58 x10E3/uL
- LYMPHOCYTE [1]: 80.95%
- MEAN CORPUSCULAR HEMOGLOBIN [1]: 20.45 pg
- MEAN CORPUSCULAR HEMOGLOBIN CONCENTRATION [1]: 31.02 G/DL
- MEAN CORPUSCULAR VOLUME [1]: 65.97 fL
- MONOCYTE [1]: 1.97%
- NEUTROPHIL [1]: 14.12%
- PLATELET COUNT [1]: 1229.25 x10E3/uL
- ALANINE AMINOTRANSFERASE [1]: 45 u/L
- ALBUMIN [1]: 3.8 G/DL
- ALKALINE PHOSPHATASE [1]: 388 u/L
- ASPARTATE AMINOTRANSFERASE [1]: 72.25 u/L
- BLOOD UREA NITROGEN [1]: 15.75 mg/dL
- CARBON DIOXIDE [1]: 37 mmol/L
- CHLORIDE [1]: 107 MEQ/L
- CHOLESTEROL [1]: 73 mg/dL
- CREATINE PHOSPHOKINASE [1]: 525.5 u/L
- CREATININE [1]: 0.5 mg/dL
- GLUCOSE [1]: 179.5 mg/dL
- LACTATE DEHYDROGENASE [1]: 216.25 u/L
- LIPASE [1]: 22.5 u/L
- PHOSPHORUS [1]: 11.97 mg/dL
- POTASSIUM [1]: 6.4 MEQ/L
- SODIUM [1]: 151.25 MEQ/L
- TOTAL BILIRUBIN [1]: 0.3 mg/dL
- TOTAL PROTEIN [1]: 6.55 G/DL
- URIC ACID [1]: 1.35 mg/dL
- ABSOLUTE BASOPHIL [2]: 120 cells/µL
- ABSOLUTE EOSINOPHIL [2]: 40 cells/µL
- ABSOLUTE LYMPHOCYTE [2]: 10100 cells/µL
- ABSOLUTE MONOCYTE [2]: 190 cells/µL
- BASOPHIL [2]: 1.1%
- EOSINOPHIL [2]: 0.33%
- ERYTHROCYTE COUNT [2]: 7.86 x10E6/uL
- HEMATOCRIT [2]: 48.5%
- HEMOGLOBIN [2]: 15.4 G/DL
- LEUKOCYTE COUNT [2]: 11.73 x10E3/uL
- LYMPHOCYTE [2]: 85.92%
- MEAN CORPUSCULAR HEMOGLOBIN [2]: 19.55 pg
- MEAN CORPUSCULAR HEMOGLOBIN CONCENTRATION [2]: 31.72 G/DL
- MEAN CORPUSCULAR VOLUME [2]: 61.67 fL
- MONOCYTE [2]: 1.6%
- NEUTROPHIL [2]: 10.2%
- PLATELET COUNT [2]: 1212.75 x10E3/uL
- ALANINE AMINOTRANSFERASE [2]: 47 u/L
- ALBUMIN [2]: 3.85 G/DL
- ALKALINE PHOSPHATASE [2]: 356.5 u/L
- ASPARTATE AMINOTRANSFERASE [2]: 87.75 u/L
- BLOOD UREA NITROGEN [2]: 14.25 mg/dL
- CARBON DIOXIDE [2]: 36.5 mmol/L
- CHLORIDE [2]: 106.5 MEQ/L
- CHOLESTEROL [2]: 63.25 mg/dL
- CREATINE PHOSPHOKINASE [2]: 324.5 u/L
- CREATININE [2]: 0.65 mg/dL
- GLUCOSE [2]: 162.75 mg/dL
- LACTATE DEHYDROGENASE [2]: 299 u/L
- LIPASE [2]: 16.75 u/L
- PHOSPHORUS [2]: 10.45 mg/dL
- POTASSIUM [2]: 6.6 MEQ/L
- SODIUM [2]: 152 MEQ/L
- TOTAL BILIRUBIN [2]: 0.25 mg/dL
- TOTAL PROTEIN [2]: 6.7 G/DL
- URIC ACID [2]: 1.15 mg/dL
- ABSOLUTE BASOPHIL [3]: 0 CELLS/uL
- ABSOLUTE EOSINOPHIL [3]: 27 CELLS/uL
- ABSOLUTE LYMPHOCYTE [3]: 9772.67 CELLS/uL
- ABSOLUTE MONOCYTE [3]: 248.67 CELLS/uL
- ABSOLUTE SEGMENTED NEUTROPHIL [3]: 751.67 CELLS/uL
- BASOPHIL [3]: 0%
- EOSINOPHIL [3]: 0.33%
- ERYTHROCYTE COUNT [3]: 4.84 x10E6/uL
- HEMATOCRIT [3]: 31.57%
- HEMOGLOBIN [3]: 12.13 G/DL
- LEUKOCYTE COUNT [3]: 10.8 x10E3/uL
- LYMPHOCYTE [3]: 90.33%
- MEAN CORPUSCULAR HEMOGLOBIN [3]: 25.1 pg
- MEAN CORPUSCULAR HEMOGLOBIN CONCENTRATION [3]: 38.43 G/DL
- MEAN CORPUSCULAR VOLUME [3]: 65.27 fL
- MONOCYTE [3]: 2.33%
- NEUTROPHIL [3]: 7%
- NUCLEATED RED BLOOD CELLS [3]: 0 /100WBC
- PLATELET COUNT [3]: 1127 x10E3/uL
- ALANINE AMINOTRANSFERASE [3]: 57.33 u/L
- ALBUMIN [3]: 3.9 G/DL
- ALKALINE PHOSPHATASE [3]: 413.67 u/L
- ASPARTATE AMINOTRANSFERASE [3]: 90.67 u/L
- BLOOD UREA NITROGEN [3]: 16 mg/dL
- CARBON DIOXIDE [3]: 30.33 mmol/L
- CHLORIDE [3]: 98.33 MEQ/L
- CHOLESTEROL [3]: 86 mg/dL
- CREATINE PHOSPHOKINASE [3]: 368 u/L
- CREATININE [3]: 0.25 mg/dL
- GLUCOSE [3]: 147.33 mg/dL
- LACTATE DEHYDROGENASE [3]: 103 u/L
- LIPASE [3]: 10.67 u/L
- PHOSPHORUS [3]: 10.53 mg/dL
- POTASSIUM [3]: 5.88 MEQ/L
- SODIUM [3]: 141.1 MEQ/L
- TOTAL BILIRUBIN [3]: 0.23 mg/dL
- TOTAL PROTEIN [3]: 6.23 G/DL
- URIC ACID [3]: 0.43 mg/dL
- ABSOLUTE SEGMENTED NEUTROPHIL [4]: 1373 CELLS/uL
- BASOPHIL [4]: 0.85% and 0%
- EOSINOPHIL [4]: 0.43% and 0.33%
- ERYTHROCYTE COUNT [4]: 6.77 x10E6/uL and 5.32 x10E6/uL
- HEMATOCRIT [4]: 44.08% and 33.07%
- HEMOGLOBIN [4]: 13.62 G/DL and 12.93 G/DL
- LEUKOCYTE COUNT [4]: 14.73 x10E3/uL and 11.23 x10E3/uL
- LYMPHOCYTE [4]: 80.67% and 87%
- MEAN CORPUSCULAR HEMOGLOBIN [4]: 20.1 pg and 24.37 pg
- MEAN CORPUSCULAR HEMOGLOBIN CONCENTRATION [4]: 30.93 G/DL and 39.13 G/DL
- MEAN CORPUSCULAR VOLUME [4]: 65 fL and 62.23 fL
- MONOCYTE [4]: 2.75% and 0.33%
- NEUTROPHIL [4]: 13.88% and 12.33%
- NUCLEATED RED BLOOD CELLS [4]: 0 /100WBC
- PLATELET COUNT [4]: 1086.75 x10E3/uL and 1423 x10E3/uL
- ALANINE AMINOTRANSFERASE [4]: 52.75 u/L and 43 u/L
- ALBUMIN [4]: 3.67 G/DL and 4 G/DL
- ALKALINE PHOSPHATASE [4]: 395.75 u/L and 410 u/L
- ASPARTATE AMINOTRANSFERASE [4]: 91 u/L and 82.67 u/L
- BLOOD UREA NITROGEN [4]: 13.75 mg/dL and 14.67 mg/dL
- CARBON DIOXIDE [4]: 36.75 mmol/L and 34.67 mmol/L
- CHLORIDE [4]: 105.75 MEQ/L and 99.33 MEQ/L
- CHOLESTEROL [4]: 84.75 mg/dL and 72 mg/dL
- CREATINE PHOSPHOKINASE [4]: 591 u/L and 571.33 u/L
- CREATININE [4]: 0.4 mg/dL and 0.23 mg/dL
- GLUCOSE [4]: 181.5 mg/dL and 137.33 mg/dL
- LACTATE DEHYDROGENASE [4]: 125.75 u/L and 163.67 u/L
- LIPASE [4]: 18.5 u/L and 7.33 u/L
- PHOSPHORUS [4]: 11.68 mg/dL and 12.63 mg/dL
- POTASSIUM [4]: 6.62 MEQ/L and 6.41 MEQ/L
- SODIUM [4]: 151 MEQ/L and 143.33 MEQ/L
- TOTAL BILIRUBIN [4]: 0.28 mg/dL and 0.13 mg/dL
- TOTAL PROTEIN [4]: 6.15 G/DL and 6.1 G/DL
- URIC ACID [4]: 1.28 mg/dL and 0.87 mg/dL
